System: not listed separately
Assay: Inhibition of RSK2 in rabbit skeletal muscle using KKRNRTLSVA as substrate after 10 mins in presence of [gamma32P]ATP
Parameters: species or system Oryctolagus cuniculus
Compound `Cn1cc(C2=C(c3cn(CCCSC(=N)N)c4ccccc34)C(=O)NC2=O)c2ccccc21` [BISINDOLYLMALEIMIDE IX] has an IC50 of 3 nM. For `CN(C)CCCn1cc(C2=C(c3c[nH]c4ccccc34)C(=O)NC2=O)c2ccccc21` [GF-109203], the IC50 was 50 nM.

Target: Ribosomal protein S6 kinase alpha-2 (Homo sapiens) (UniProt Q15349)
Sequence (Q15349 whole entry): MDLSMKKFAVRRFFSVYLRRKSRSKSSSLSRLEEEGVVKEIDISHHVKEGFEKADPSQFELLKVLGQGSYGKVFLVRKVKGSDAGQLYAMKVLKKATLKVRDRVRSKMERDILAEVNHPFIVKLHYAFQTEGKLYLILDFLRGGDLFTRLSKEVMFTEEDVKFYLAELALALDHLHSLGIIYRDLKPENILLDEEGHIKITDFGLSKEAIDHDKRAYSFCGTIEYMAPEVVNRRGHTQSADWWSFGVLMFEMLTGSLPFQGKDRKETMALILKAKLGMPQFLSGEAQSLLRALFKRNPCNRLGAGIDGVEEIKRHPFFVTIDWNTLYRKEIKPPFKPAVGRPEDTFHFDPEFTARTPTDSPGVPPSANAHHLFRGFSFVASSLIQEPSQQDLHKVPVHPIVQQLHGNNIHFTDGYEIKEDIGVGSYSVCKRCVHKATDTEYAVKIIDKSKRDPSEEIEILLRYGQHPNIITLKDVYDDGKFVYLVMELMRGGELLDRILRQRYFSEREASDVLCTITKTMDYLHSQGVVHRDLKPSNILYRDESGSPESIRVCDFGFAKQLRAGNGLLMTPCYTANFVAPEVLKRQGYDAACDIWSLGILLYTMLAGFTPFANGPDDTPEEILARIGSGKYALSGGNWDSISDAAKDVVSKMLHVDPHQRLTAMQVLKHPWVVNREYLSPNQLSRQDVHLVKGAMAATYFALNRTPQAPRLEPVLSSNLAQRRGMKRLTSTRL
Assay: Inhibition of N-terminal His6 tagged full-length human recombinant active RSK2 at 10 uM using S6 peptide after 20 mins by fluorescence assay
Work on `CCOc1ccc(NCN2C(=O)c3ccc([N+](=O)[O-])cc3C2=O)cc1` yielded an inhibition of 87%. For `COc1ccc(NCN2C(=O)c3cccc(NC(=O)c4ccccc4)c3C2=O)cc1`, the inhibition was 99.5%. For `O=C1c2ccccc2C(=O)N1CNc1ccc(F)cc1`, the inhibition was 56.7%. Work on `Cn1cc(C2=C(c3cn(CCCSC(=N)N)c4ccccc34)C(=O)NC2=O)c2ccccc21` [BISINDOLYLMALEIMIDE IX] yielded an inhibition of 98.2%. For `Cc1ccc(NCN2C(=O)c3ccc([N+](=O)[O-])cc3C2=O)cc1`, the inhibition was 35.7%. `O=C1c2ccccc2C(=O)N1CNc1ccccc1` showed an inhibition of 43.6%. Work on `Cc1ccc(NCN2C(=O)c3ccccc3C2=O)cc1` yielded an inhibition of 54%. For `O=C1c2ccccc2C(=O)N1CNc1ccc(OC(F)(F)F)cc1`, the inhibition was 28.1%. For `O=C1c2ccccc2C(=O)N1CNc1ccc(Cl)cc1`, the inhibition was 8.52%. `O=C1c2ccccc2C(=O)N1CNc1ccc(N2CCOCC2)cc1` showed an inhibition of 101%. For `COc1ccc(N(C)CN2C(=O)c3ccccc3C2=O)cc1`, the inhibition was 87%. With `COc1ccc(NCN2C(=O)c3ccc(NC(=O)c4ccccc4)cc3C2=O)cc1` the inhibition was 82%. `CCOc1ccc(NCN2C(=O)c3cccc(NC(=O)c4ccccc4)c3C2=O)cc1` showed an inhibition of 105%. Work on `COc1ccc(NCN2C(=O)c3cccc(N)c3C2=O)cc1` yielded an inhibition of 95.6%. With `COc1ccc(NCN2C(=O)c3ccc(N)cc3C2=O)cc1` the inhibition was 109%. In the case of `CCOc1ccc(NCN2C(=O)c3ccccc3C2=O)cc1`, the inhibition is reported as 100%. For `CC(C)c1ccc(NCN2C(=O)c3ccccc3C2=O)cc1`, the inhibition was 46.5%. For `O=C1c2ccccc2C(=O)N1CNc1ccc(O)cc1`, the inhibition was 101%. `CCc1ccc(NCN2C(=O)c3ccccc3C2=O)cc1` showed an inhibition of 63%. Compound `CCN(CC)c1ccc(NCN2C(=O)c3ccccc3C2=O)c(C)c1` has an inhibition of 81%. For `COc1ccc(NCN2C(=O)c3ccccc3C2=O)cc1`, the inhibition was 97.2%. `CCOc1ccc(NCN2C(=O)c3ccc(NC(=O)c4ccccc4)cc3C2=O)cc1` showed an inhibition of 69.5%. For `COc1ccc(NCN2C(=O)c3ccc(NC(=O)Nc4ccccc4)cc3C2=O)cc1`, the inhibition was 34.8%. In the case of `O=C(Nc1ccc2c(c1)C(=O)N(CNc1ccc(N3CCOCC3)cc1)C2=O)c1ccccc1`, the inhibition is reported as 103%. `COc1ccc(N(CN2C(=O)c3ccccc3C2=O)C(C)=O)cc1` gave an inhibition of 17.2%.
